Measured values taken from patent US20210317092A1 (BAYER PHARMA AKTIENGESELLSCHAFT, priority 2016, published 2021).
Where two headings read alike, the source gives them in different places.

Columns and labels:
[1] = molecular target: T1, native human Bradykinin B1 receptor (Homo sapiens, UniProt P46663); experiment: Calcium flux Assay (FLIPR) with human fibroblasts expressing Bradykinin B1 receptor (hB1 IMR-90); assay type: cell-based; details: IMR-90 human fibroblasts expressing native Bradykinin B1 receptor
T1 construct: which express native human Bradykinin B1 receptor after induction with human IL-10; Coriell Institute; host or cells: IMR-90 human foetal lung fibroblasts, cytokine-induced
T1 sequence (P46663 1-353): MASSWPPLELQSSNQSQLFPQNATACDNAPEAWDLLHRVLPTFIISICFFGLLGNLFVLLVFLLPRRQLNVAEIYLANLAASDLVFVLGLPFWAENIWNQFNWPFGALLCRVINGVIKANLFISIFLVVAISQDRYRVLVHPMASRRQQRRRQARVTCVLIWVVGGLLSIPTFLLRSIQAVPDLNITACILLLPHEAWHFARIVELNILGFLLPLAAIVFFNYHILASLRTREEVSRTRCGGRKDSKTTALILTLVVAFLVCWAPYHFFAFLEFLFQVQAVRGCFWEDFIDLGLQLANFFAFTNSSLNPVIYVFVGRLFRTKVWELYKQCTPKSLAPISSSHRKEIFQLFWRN
Outline: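 IMR-90 human foetal lung fibroblasts induced with 0.35 ng/mL […] for 3 h, Fluo-4/AM-loaded, preincubated with compound (8 concentrations, triplicate) for 30 min at 28 °C, then challenged with Lys-(Des-Arg)-bradykinin at EC90. Ca2+ fluorescence was read at 538 nm; full inhibition set by 20 µM Lys-(Des-Arg-Leu)-bradykinin; IC50 derived.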

[2] = molecular target: T2, human Bradykinin B1 receptor (Homo sapiens, UniProt P46663); experiment: Calcium flux Assay (FLIPR) with recombinant CHO-K1 cells expressing human Bradykinin B1 receptor, in presence (hB1 IC50) or absence (hB1 free IC50) of 0.1% BSA; assay type: cell-based
T2 construct: host or cells: CHO-K1
T2 sequence (P46663 1-353): T1 sequence (P46663 1-353)

[3] = in absence of 0.1% BSA, read-out: hB1 free IC50
[4] = in presence of 0.1% BSA, read-out: hB1 IC50

| SMILES | IC50 [1] [nM] | IC50 [2, 3] [nM] | IC50 [2, 4] [nM] |
| --- | --- | --- | --- |
| CC(C)Oc1ccc(-c2ccc(NC(=O)C3(c4cccc(Cl)c4)CC3)cc2-c2nnn[nH]2)cn1 [Example 148, 1-(3-chlorophenyl)-N-[4-(6-isopropoxy-pyridin-3-yl)-3-(1H-tetrazol-5-yl)phenyl] cyclopropane-carboxamide] | 18.5 | 1.94 | 20 |
| CC(C)Oc1ccc(-c2ccc(NC(=O)C3(c4ccc(C(F)(F)F)cc4)CC3)cc2-c2nnn[nH]2)cn1 [Example 149, N-[4-(6-isopropoxy-pyridin-3-yl)-3-(1H-tetrazol-5-yl)phenyl]-1-[4-(trifluoromethyl)phenyl] cyclopropane-carboxamide] | 11.8 | 6.35 | 14.4 |
| COc1cncc(-c2ccc(NC(=O)C3(c4cccc(Cl)c4)CC3)cc2-c2nnn[nH]2)c1 [Example 153, 1-(3-chlorophenyl)-N-[4-(5-methoxypyridin-3-yl)-3-(1H-tetrazol-5-yl)phenyl] cyclopropane-carboxamide] | 18.6 | 3.64 | 26.2 |
| CCOc1cncc(-c2ccc(NC(=O)C3(c4ccc(C(F)(F)F)cc4)CC3)cc2-c2nnn[nH]2)c1 [Example 156, N-[4-(5-ethoxypyridin-3-yl)-3-(1H-tetrazol-5-yl)phenyl]-1-[4-(trifluoromethyl)phenyl] cyclopropane-carboxamide] | 84.6 | 36.6 | 27.5 |
| CCOc1ncc(-c2ccc(NC(=O)C3(c4cccc(Cl)c4)CC3)cc2-c2nnn[nH]2)cc1C [Example 160, 1-(3-chlorophenyl)-N-[4-(6-ethoxy-5-methylpyridin-3-yl)-3-(1H-tetrazol-5-yl)phenyl] cyclopropane-carboxamide] | 26.7 | 8.13 | 47.7 |
| CCOc1ncc(-c2ccc(NC(=O)C3(c4cccc(Cl)c4)CC3)cc2-c2nnn[nH]2)cc1F [Example 163, 1-(3-chlorophenyl)-N-[4-(6-ethoxy-5-fluoropyridin-3-yl)-3-(1H-tetrazol-5-yl)phenyl] cyclopropane-carboxamide] | 28.9 | 14.2 | 28.1 |
| CN(C)c1ccc(-c2ccc(NC(=O)C3(c4cccc(Cl)c4F)CC3)cc2-c2nnn[nH]2)cn1 [Example 168, 1-(3-chloro-2-fluorophenyl)-N-{4-[6-(dimethylamino)pyridin-3-yl]-3-(1H-tetrazol-5-yl)phenyl} cyclopropane-carboxamide] | 27.7 | 58.6 | 88.1 |
| O=C(Nc1ccc(-c2ccnc(C(F)(F)F)c2)c(-c2nnn[nH]2)c1)C1(c2cccc(Cl)c2)CC1 [Example 171, 1-(3-chlorophenyl)-N-{3-(1H-tetrazol-5-yl)-4-[2-(trifluoromethyl)pyridin-4-yl]phenyl} cyclopropane-carboxamide] | 281 | 422 | 358 |
| O=C(Nc1ccc(-c2ccnc(C(F)(F)F)c2)c(-c2nnn[nH]2)c1)C1(c2ccc(C(F)(F)F)cc2F)CC1 [Example 173, 1-[2-fluoro-4-(trifluoromethyl)phenyl]-N-{3-(1H-tetrazol-5-yl)-4-[2-(trifluoromethyl)pyridin-4-yl]phenyl} cyclopropane-carboxamide] | 92.4 | 86.5 | – |
| O=C(Nc1ccc(-c2ccnc(C(F)(F)F)c2)c(-c2nnn[nH]2)c1)C1(c2ccc(Cl)cc2F)CC1 [Example 175, 1-(4-chloro-2-fluorophenyl)-N-{3-(1H-tetrazol-5-yl)-4-[2-(trifluoromethyl)pyridin-4-yl]phenyl} cyclopropane-carboxamide] | 687 | 216 | – |
| CCc1cc(-c2ccc(NC(=O)C3(c4cccc(Cl)c4)CC3)cc2-c2nnn[nH]2)ccn1 [Example 181, 1-(3-chlorophenyl)-N-[4-(2-ethylpyridin-4-yl)-3-(1H-tetrazol-5-yl)phenyl] cyclopropane-carboxamide] | 7.29 | 20.8 | 14.8 |
| CCOc1ncc(-c2ccc(NC(=O)C3(c4cccc(Cl)c4F)CC3)cc2-c2nnn[nH]2)cn1 [Example 183, 1-(3-chloro-2-fluorophenyl)-N-[4-(2-ethoxypyrimidin-5-yl)-3-(1H-tetrazol-5-yl)phenyl] cyclopropane-carboxamide] | 11.1 | 54.4 | 33 |
| CCOc1ncc(-c2ccc(NC(=O)C3(c4cccc(Cl)c4)CC3)cc2-c2nnn[nH]2)cn1 [Example 184, 1-(3-chlorophenyl)-N-[4-(2-ethoxypyrimidin-5-yl)-3-(1H-tetrazol-5-yl)phenyl] cyclopropane-carboxamide] | 22.3 | 24.6 | 50.5 |
| CO[C@H]1CC[C@H](c2ccc(NC(=O)C3(c4cccc(Cl)c4)CC3)cc2-c2nnn[nH]2)CC1 [Example 190, 1-(3-chlorophenyl)-N-[4-(trans-4-methoxy-cyclohexyl)-3-(1H-tetrazol-5-yl)phenyl] cyclopropane-carboxamide] | 340 | 189 | 250 |
| O=C(Nc1ccc(-c2ccc(C(F)(F)F)nc2)c(-c2nnn[nH]2)c1)C1(c2ccc(C(F)(F)F)cc2F)CC1 [Example 191, 1-[2-fluoro-4-(trifluoromethyl)phenyl]-N-{3-(1H-tetrazol-5-yl)-4-[6-(trifluoromethyl)pyridin-3-yl]phenyl} cyclopropane-carboxamide] | 20.5 | 11.8 | – |
| O=C(Nc1ccc(-c2ccc(C(F)(F)F)nc2)c(-c2nnn[nH]2)c1)C1(c2ccc(Cl)cc2F)CC1 [Example 192, 1-(4-chloro-2-fluorophenyl)-N-{3-(1H-tetrazol-5-yl)-4-[6-(trifluoromethyl)pyridin-3-yl]phenyl} cyclopropane-carboxamide] | 29.1 | 33.9 | – |
| O=C(Nc1ccc(-c2ccc(C(F)(F)F)nc2)c(-c2nnn[nH]2)c1)C1(c2ccc(F)c(F)c2)CC1 [Example 193, 1-(3,4-difluorophenyl)-N-{3-(1H-tetrazol-5-yl)-4-[6-(trifluoromethyl)pyridin-3-yl]phenyl} cyclopropane-carboxamide] | 80.6 | 95.3 | – |
| O=C(Nc1ccc(-c2cnc(C(F)(F)F)nc2)c(-c2nnn[nH]2)c1)C1(c2cccc(Cl)c2)CC1 [Example 196, 1-(3-chlorophenyl)-N-{3-(1H-tetrazol-5-yl)-4-[2-(trifluoromethyl)pyrimidin-5-yl]phenyl} cyclopropane-carboxamide] | 1450 | 759 | 1370 |
| CC(F)(F)c1ccc(-c2ccc(NC(=O)C3(c4cccc(Cl)c4)CC3)cc2-c2nnn[nH]2)cn1 [Example 202, 1-(3-chlorophenyl)-N-{4-[6-(1,1-difluoroethyl)pyridin-3-yl]-3-(1H-tetrazol-5-yl)phenyl} cyclopropane-carboxamide] | 50.9 | 83.2 | – |
| O=C(Nc1ccc(-c2ccc(C(F)(F)F)nc2)c(-c2nnn[nH]2)c1)C1(c2ccc(Cl)cc2)CC1 [Example 203, 1-(4-chlorophenyl)-N-{3-(1H-tetrazol-5-yl)-4-[6-(trifluoromethyl)pyridin-3-yl]phenyl} cyclopropane-carboxamide] | 36.7 | 92.2 | – |
| O=C(Nc1ccc(-c2ccc(C(F)F)nc2)c(-c2nnn[nH]2)c1)C1(c2ccc(F)c(F)c2)CC1 [Example 207, N-{4-[6-(difluoromethyl)pyridin-3-yl]-3-(1H-tetrazol-5-yl)phenyl}-1-(3,4-difluorophenyl) cyclopropane-carboxamide] | 14.9 | 22.4 | – |
| Cc1ccc(-c2ccc(NC(=O)C3(c4cccc(Cl)c4)CC3)cc2-c2nnn[nH]2)cn1 [Example 208, 1(3-chlorophenyl)-N-[4-(6-methylpyridin-3-yl)-3-(1H-tetrazol-5-yl)phenyl] cyclopropane-carboxamide] | 11.2 | 22.6 | 15.8 |
| Cc1ccc(-c2ccc(NC(=O)C3(c4ccc(C(F)(F)F)cc4F)CC3)cc2-c2nnn[nH]2)cn1 [Example 209, 1-[2-fluoro-4-(trifluoromethyl)phenyl]-N-[4-(6-methylpyridin-3-yl)-3-(1H-tetrazol-5-yl)phenyl] cyclopropane-carboxamide] | 3.05 | 2.96 | – |
| Cc1cc(-c2ccc(NC(=O)C3(c4cccc(Cl)c4F)CC3)cc2-c2nnn[nH]2)ccn1 [Example 211, 1-(3-chloro-2-fluorophenyl)-N-[4-(2-methylpyridin-4-yl)-3-(1H-tetrazol-5-yl)phenyl] cyclopropane-carboxamide] | 19.1 | 10.5 | 23.1 |
| Cc1cc(-c2ccc(NC(=O)C3(c4ccc(C(F)(F)F)cc4F)CC3)cc2-c2nnn[nH]2)ccn1 [Example 212, 1-[2-fluoro-4-(trifluoromethyl)phenyl]-N-[4-(2-methylpyridin-4-yl)-3-(1H-tetrazol-5-yl)phenyl] cyclopropane carboxamide] | 3.92 | 2.77 | – |
